Test results reported in paper PMC7765948, “Spadin Modulates Astrocytic Passive Conductance via Inhibition of TWIK-1/TREK-1 Heterodimeric Channels” (International Journal of Molecular Sciences, 2020).
Like-named read-outs stand apart in the source and are kept apart here.

Tests used:
[1] = test system: TREK-1; conditions: cited from earlier work; for reduction of TREK-1 activity: antidepressants
Procedure: (§1) Because of the typical linear I–V relationship of astrocytic passive conductance, it has been speculated that astrocytic passive conductance is carried by non-voltage-gated K^+ channels.

[2] = test system: astrocytic passive conductance in mouse hippocampal slices; test: Whole-cell patch clamp of astrocytic passive conductance in hippocampal slices; assay type: cell-based, mouse (C57BL/6); conditions: quinidine 200 μM versus spadin 10 μM
Procedure: Lentiviruses were injected into hippocampal CA1 region (AP: 0.17, ML: 0.17, DV: 0.19) of 7–8 week-old wild-type C57BL/6 mice. The virus-infected mouse brain slices (350 μm) containing the hippocampus were […]. Individual hippocampal slices were transferred to a recording chamber, which was constantly perfused with artificial cerebrospinal fluid (ACSF) recording solution containing (in mM) 130 NaCl, 24 NaHCO3, 3.5 KCl, 1.25 NaH2PO4, 1.5 CaCl2, 1.5 MgCl2, and 10 glucose saturated with 95% O2–5% CO2 at pH 7.4. Brain slices were co-loaded with SR-101 (Sigma Aldrich, St. Louis, MO, USA; 1 mM) dye to identify the location of astrocytes in the CA1 region. The slices were recovered at room temperature for at least 1 h before SR101 incubation and electrophysiological recording. […] Whole-cell patch recordings were performed on hippocampal astrocytes with a voltage-clamp configuration using an Axopatch 700B (Axon Instruments, Union City, CA, USA). All data are presented as means ± standard error of the mean (s.e.m). The significance of data for comparison was assessed by Student’s t-test (paired t-test) or one-way ANOVA followed by Turkey’s post hoc test, and significance levels are given as: n.s: not significant, * p < 0.05, ** p < 0.01, *** p < 0.001, and **** p < 0.0001. […]

[3] = test system: astrocytic passive conductance; conditions: 200 μM quinine; cited from earlier work
Procedure: as §1

[4] = test system: TWIK-1 (K274E); conditions: 100 μM quinine; cited from earlier work
Procedure: as §1

[5] = conventional K^+ channel blockers

Nc1ccncn1 [4-aminopyrimidine]
TREK-1 channel activity [1, 5]: not

CCCCC/C=C\C/C=C\C/C=C\C/C=C\CCCC(=O)O [AA, arachidonic acid]
TREK-1 channel activation [1]: activated

CNCCC(Oc1ccc(C(F)(F)F)cc1)c1ccccc1 (centres unmarked) [Fluoxetine]
reduction of TREK-1 activity [1]: effective in the reduction of TREK-1 activity

Fc1ccc([C@@H]2CCNC[C@H]2COc2ccc3c(c2)OCO3)cc1 [paroxetine]
reduction of TREK-1 activity [1]: effective in the reduction of TREK-1 activity

C=C[C@H]1C[N@@]2CC[C@H]1C[C@@H]2[C@@H](O)c1ccnc2ccc(OC)cc12 [quinidine]
concentration required for similar inhibition of passive conductance [2]: required at a much higher concentration than spadin
TREK-1 channel activity ([1]; high-dose quinine or quinidine): affected

C=C[C@H]1C[N@@]2CC[C@H]1C[C@H]2[C@H](O)c1ccnc2ccc(OC)cc12 [quinine]
inhibition of astrocytic passive conductance [3]: 58%
cloned TWIK-1 (K274E) current [4]: potently decreases
cloned TREK-1 current ([1]; 100 μM quinine): potently decreases
TREK-1 channel activity ([1]; high-dose quinine or quinidine): affected

CC[N+](CC)(CC)CC [tetraethylammonium]
TREK-1 channel activity [1, 5]: not
